Results: the supplement of paper PMC10307832

Experiments:
Assay in all cases: relative viability (nuclei count vs DMSO), 5 days (fraction); higher = more cells survive
[1] = system: NCI-H2170
Procedure, shortened: (§1)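 After 5 days of treatment, lung cancer cells in 1536-well plates were fixed and stained in a single step (final 0.05% Triton X-100, 1% formaldehyde, 1 ug/ml Hoechst) and their nuclei counted on 4× images. Treatment had been applied by pin tool the day after seeding as one drug alone or as a fixed anchor-drug dose with five library-drug doses (not always all listed) in √10 steps. Relative viability is the nuclei count of treated wells divided by that of vehicle wells, and values are medians of duplicate plates.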

[2] = system: NCI-H3122
Procedure, shortened: as §1

[3] = system: NCI-H1993
Procedure, shortened: as §1

[4] = system: HARA
Procedure, shortened: as §1

[5] = system: NCI-H1944
Procedure, shortened: as §1

[6] = system: PC-3 [JPC-3]
Procedure, shortened: as §1

[7] = system: EMC-BAC-2
Procedure, shortened: as §1

[8] = system: NCI-H2228
Procedure, shortened: as §1

[9] = system: NCI-H322M
Procedure, shortened: as §1

[10] = system: SK-MES-1
Procedure, shortened: as §1

[11] = system: NCI-H596
Procedure, shortened: as §1

[12] = system: HOP-62
Procedure, shortened: as §1

[13] = system: A-427
Procedure, shortened: as §1

[14] = system: LK-2
Procedure, shortened: as §1

[15] = system: SW 1573
Procedure, shortened: as §1

[16] = system: LXF-289
Procedure, shortened: as §1

[17] = system: ABC-1
Procedure, shortened: as §1

[18] = system: NCI-H2009
Procedure, shortened: as §1

[19] = system: NCI-H727
Procedure, shortened: as §1

[20] = system: SW 900
Procedure, shortened: as §1

## Nc1ccn([C@@H]2O[C@H](CO)[C@@H](O)[C@@H]2O)c(=O)n1 [Cytarabine] + COc1cc2c(Oc3ccc(NC(=O)C4(C(=O)Nc5ccc(F)cc5)CC4)cc3F)ccnc2cc1OCCCN1CCOCC1 [Foretinib] (partner 0.25 µM)
[1]; first compound 0.005 µM
  relative viability: 0.736
[1]; first compound 0.01581 µM
  relative viability: 0.458
[1]; first compound 0.05 µM
  relative viability: 0.672
[1]; first compound 0.1581 µM
  relative viability: 0.515
[1]; first compound 0.5 µM
  relative viability: 0.569
[2]; first compound 0.005 µM
  relative viability: 0.887
[2]; first compound 0.01581 µM
  relative viability: 0.805
[2]; first compound 0.05 µM
  relative viability: 0.777
[2]; first compound 0.1581 µM
  relative viability: 0.509
[2]; first compound 0.5 µM
  relative viability: 0.344
[3]; first compound 0.005 µM
  relative viability: 0.843
[3]; first compound 0.01581 µM
  relative viability: 0.889
[3]; first compound 0.05 µM
  relative viability: 0.726
[3]; first compound 0.1581 µM
  relative viability: 0.485
[3]; first compound 0.5 µM
  relative viability: 0.468
[4]; first compound 0.005 µM
  relative viability: 0.753
[4]; first compound 0.01581 µM
  relative viability: 0.496
[4]; first compound 0.05 µM
  relative viability: 0.363
[4]; first compound 0.1581 µM
  relative viability: 0.107
[4]; first compound 0.5 µM
  relative viability: 0.123
[5]; first compound 0.005 µM
  relative viability: 0.633
[5]; first compound 0.01581 µM
  relative viability: 0.438
[5]; first compound 0.05 µM
  relative viability: 0.331
[5]; first compound 0.1581 µM
  relative viability: 0.223
[5]; first compound 0.5 µM
  relative viability: 0.168
[6]; first compound 0.005 µM
  relative viability: 0.947
[6]; first compound 0.01581 µM
  relative viability: 0.832
[6]; first compound 0.05 µM
  relative viability: 0.939
[6]; first compound 0.1581 µM
  relative viability: 0.629
[6]; first compound 0.5 µM
  relative viability: 0.615
[7]; first compound 0.005 µM
  relative viability: 0.954
[7]; first compound 0.01581 µM
  relative viability: 0.831
[7]; first compound 0.05 µM
  relative viability: 0.305
[7]; first compound 0.1581 µM
  relative viability: 0.282
[7]; first compound 0.5 µM
  relative viability: 0.226
[8]; first compound 0.005 µM
  relative viability: 0.479
[8]; first compound 0.01581 µM
  relative viability: 0.563
[8]; first compound 0.05 µM
  relative viability: 0.285
[8]; first compound 0.1581 µM
  relative viability: 0.173
[8]; first compound 0.5 µM
  relative viability: 0.166
[9]; first compound 0.005 µM
  relative viability: 0.827
[9]; first compound 0.01581 µM
  relative viability: 0.761
[9]; first compound 0.05 µM
  relative viability: 0.677
[9]; first compound 0.1581 µM
  relative viability: 0.464
[9]; first compound 0.5 µM
  relative viability: 0.336
[10]; first compound 0.005 µM
  relative viability: 0.763
[10]; first compound 0.01581 µM
  relative viability: 0.704
[10]; first compound 0.05 µM
  relative viability: 0.457
[10]; first compound 0.1581 µM
  relative viability: 0.336
[10]; first compound 0.5 µM
  relative viability: 0.304
[11]; first compound 0.005 µM
  relative viability: 0.923
[11]; first compound 0.01581 µM
  relative viability: 0.723
[11]; first compound 0.05 µM
  relative viability: 0.542
[11]; first compound 0.1581 µM
  relative viability: 0.44
[11]; first compound 0.5 µM
  relative viability: 0.336
[12]; first compound 0.005 µM
  relative viability: 0.904
[12]; first compound 0.01581 µM
  relative viability: 0.875
[12]; first compound 0.05 µM
  relative viability: 0.45
[12]; first compound 0.1581 µM
  relative viability: 0.137
[12]; first compound 0.5 µM
  relative viability: 0.142
[13]; first compound 0.005 µM
  relative viability: 0.975
[13]; first compound 0.01581 µM
  relative viability: 0.399
[13]; first compound 0.05 µM
  relative viability: 0.296
[13]; first compound 0.1581 µM
  relative viability: 0.182
[13]; first compound 0.5 µM
  relative viability: 0.176
[14]; first compound 0.005 µM
  relative viability: 1.33
[14]; first compound 0.01581 µM
  relative viability: 0.683
[14]; first compound 0.05 µM
  relative viability: 0.741
[14]; first compound 0.1581 µM
  relative viability: 0.309
[14]; first compound 0.5 µM
  relative viability: 0.282
[15]; first compound 0.005 µM
  relative viability: 0.929
[15]; first compound 0.01581 µM
  relative viability: 0.688
[15]; first compound 0.05 µM
  relative viability: 0.881
[15]; first compound 0.1581 µM
  relative viability: 0.464
[15]; first compound 0.5 µM
  relative viability: 0.202
[16]; first compound 0.005 µM
  relative viability: 0.939
[16]; first compound 0.01581 µM
  relative viability: 0.961
[16]; first compound 0.05 µM
  relative viability: 0.749
[16]; first compound 0.1581 µM
  relative viability: 0.412
[16]; first compound 0.5 µM
  relative viability: 0.299
[17]; first compound 0.005 µM
  relative viability: 0.997
[17]; first compound 0.01581 µM
  relative viability: 1.14
[17]; first compound 0.05 µM
  relative viability: 1.06
[17]; first compound 0.1581 µM
  relative viability: 1.01
[17]; first compound 0.5 µM
  relative viability: 0.63
[18]; first compound 0.005 µM
  relative viability: 1.23
[18]; first compound 0.01581 µM
  relative viability: 1.22
[18]; first compound 0.05 µM
  relative viability: 1.19
[18]; first compound 0.1581 µM
  relative viability: 0.981
[18]; first compound 0.5 µM
  relative viability: 0.503
[19]; first compound 0.005 µM
  relative viability: 0.656
[19]; first compound 0.01581 µM
  relative viability: 0.681
[19]; first compound 0.05 µM
  relative viability: 0.597
[19]; first compound 0.1581 µM
  relative viability: 0.488
[19]; first compound 0.5 µM
  relative viability: 0.397
[20]; first compound 0.005 µM
  relative viability: 0.688
[20]; first compound 0.01581 µM
  relative viability: 0.569
[20]; first compound 0.05 µM
  relative viability: 0.329
[20]; first compound 0.1581 µM
  relative viability: 0.21
[20]; first compound 0.5 µM
  relative viability: 0.114
